Experimental data taken from BindingDB's records for doi:10.1021/acsmedchemlett.6b00145 (Amgen, 2016).

Tests used:
[1] = biological target: T1, Hexokinase-4 (Homo sapiens, UniProt P35557); assay: Activation of human recombinant glucokinase using 5 mM glucose as substrate in presence of NAD+ by glucose 6-phosphate dehydrogenase coupled assay
T1 sequence (P35557 whole entry): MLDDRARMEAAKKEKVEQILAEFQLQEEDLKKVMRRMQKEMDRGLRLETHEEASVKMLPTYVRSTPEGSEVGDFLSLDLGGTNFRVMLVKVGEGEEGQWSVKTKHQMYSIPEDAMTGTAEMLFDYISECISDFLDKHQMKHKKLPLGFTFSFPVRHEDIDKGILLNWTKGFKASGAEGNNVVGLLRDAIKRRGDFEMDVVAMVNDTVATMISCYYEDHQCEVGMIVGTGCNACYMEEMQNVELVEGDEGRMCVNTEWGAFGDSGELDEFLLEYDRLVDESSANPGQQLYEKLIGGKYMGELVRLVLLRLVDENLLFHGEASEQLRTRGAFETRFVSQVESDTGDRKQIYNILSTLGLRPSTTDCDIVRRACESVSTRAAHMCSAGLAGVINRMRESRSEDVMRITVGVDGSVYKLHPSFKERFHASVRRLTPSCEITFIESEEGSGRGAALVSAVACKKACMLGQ

[2] = biological target: T1, Hexokinase-4; assay: Activation of human recombinant glucokinase using 5 mM glucose as substrate in presence of NAD+ and 4% HSA by glucose 6-phosphate dehydrogenase coupled assay

EC50 [1] | EC50 [2] | SMILES
97 nM | 190 nM | CNC(=O)Nc1cc(Oc2cncc(C)c2)c([C@@H]2CC[C@@H](O)C2)cn1
130 nM | 170 nM | CNC(=O)Nc1cc(Oc2cncc(C)c2)c([C@H]2C[C@@H]2CO)cn1
940 nM | 920 nM | CNC(=O)Nc1cc(Oc2cncc(OC)c2)c([C@@H]2COCC[C@@H]2O)cn1
83 nM | 130 nM | CNC(=O)Nc1cc(Oc2cncc(C)c2)c([C@H]2C[C@@H]2C(C)(C)O)cn1
